Four compounds from patent US12692221B2 (priority 2024, dated 2026) can be followed below.

Structures are written as SMILES.

The test system of one data set is KV channel. It is filed as binding, rat. The note with it: KV channel (antagonist radiolig.).
In another data set the test system is NMDA. The data set is described as follows: Radioligand binding NMDA (antagonist radioligand), [^3H]CGP 39653, rat cerebral cortex.
In another data set the target is T1, alpha2A (h) (Homo sapiens, UniProt P08913).
T1 construct: expressed in transfected cells; host or cells: CHO cells
T1 sequence (P08913 1-465): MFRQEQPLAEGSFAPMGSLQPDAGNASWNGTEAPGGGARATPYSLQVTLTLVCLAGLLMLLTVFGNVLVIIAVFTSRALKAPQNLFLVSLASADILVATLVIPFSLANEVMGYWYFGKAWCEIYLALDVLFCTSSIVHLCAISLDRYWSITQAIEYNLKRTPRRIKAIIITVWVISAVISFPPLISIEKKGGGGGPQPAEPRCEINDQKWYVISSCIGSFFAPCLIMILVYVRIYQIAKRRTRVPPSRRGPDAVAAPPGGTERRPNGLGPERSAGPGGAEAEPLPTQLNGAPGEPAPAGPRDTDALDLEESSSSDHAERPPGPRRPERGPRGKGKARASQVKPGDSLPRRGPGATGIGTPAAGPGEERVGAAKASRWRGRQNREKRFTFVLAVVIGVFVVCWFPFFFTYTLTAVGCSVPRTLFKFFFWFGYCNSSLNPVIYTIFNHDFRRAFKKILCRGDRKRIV
Description: Radioligand binding alpha2A (h) (antagonist radioligand), [^3H]RX 821002, CHO cells. The method, then:
Methods—Binding Assays: In vitro binding assays were performed using human recombinant receptors expressed in mammalian cell lines. Receptors were expressed in either HEK-293 or CHO cells depending on the target, and assay conditions (radioligand, concentration, nonspecific competitor, temperature, and incubation time) were optimized for each receptor. All assays were conducted in triplicate, and specific binding was quantified by scintillation counting as the detection method for each listed assay.
Specific binding was expressed as a percentage of control-specific binding, and percent inhibition was calculated using the formula in Ex. 8 above. Half-maximal inhibitory concentrations (IC50) were determined by non-linear regression analysis of the inhibition curves using the Hill equation (see Ex. 8). Inhibition constants (Ki) were calculated using the Cheng-Prusoff equation (see Ex. 8). KD values used in these calculations had been previously established for each receptor under the assay conditions (see Table 6). Data analysis was performed using software developed at Cerep and validated against SigmaPlot 4.0 for Windows.

The next data set has as its target T2, Acetylcholinesterase (h) (Homo sapiens, UniProt P22303).
T2 construct: purchased Eurofins Discovery (contract assay)
The data set is described as follows: Enzyme assay Acetylcholinesterase (h), photometry. In kind it is biochemical. Here is the method: Methods—Enzyme and Uptake Assays: In vitro enzyme and uptake assays were conducted by Eurofins Discovery using human recombinant enzymes expressed in various mammalian and insect cell lines. Enzymatic activity was measured using appropriate substrates or tracers under conditions optimized for each target, as detailed in Table 7. Reactions were incubated at room temperature for a defined duration and terminated according to established protocols. The measured components (either enzymatic products or remaining substrate) were quantified using fluorimetry, photometry, scintillation counting, or LANCE technology, depending on the assay. Assay-specific parameters, including substrate identity, cell line source, incubation time, and detection method, are provided in Table 7.
All measurements were performed in technical replicates to ensure reproducibility and data quality.
Results were expressed both as a percentage of control-specific activity and as percent inhibition of control-specific activity. Percent activity was calculated as (measured specific activity/control specific activity)×100, and percent inhibition as 100−[(measured specific activity/control specific activity)×100], based on values obtained in the presence of test compounds. IC50 and EC50 values, along with Hill coefficients (nH), were determined by nonlinear regression analysis of inhibition or concentration-response curves generated from mean replicate values. Hill curve fitting was performed as previously described using software developed at Cerep and validated against SigmaPlot® 4.0 for Windows® (© 1997 by SPSS Inc.).

The subject of another data set is MDR1. The data set is described as follows: MDR1-MDCKII bidirectional permeability assay. In kind it is in vitro ADME, Canine. The note with it: dog; for recovery at 60 min / recovery at 40 min: MDCK-MDR1, pH 7.4; for recovery at 60 min / Papp A→B at 60 min: apical-to-basolateral; for recovery at 60 min: read-out: A-B Percent Recovery; for recovery at 40 min / Papp B→A at 40 min: basolateral-to-apical; for recovery at 40 min: read-out: B-A Percent Recovery; for Papp A→B at 60 min / Papp B→A at 40 min: MDCK-MDR1, HBSS pH 7.4, 37° C. The method, then: Methods: In vitro permeability studies were performed using confluent monolayers of MDR1-transfected Madin-Darby Canine Kidney (MDR1-MDCKII) cells cultured under standard conditions. Cells were seeded onto permeable supports and maintained until they formed tight monolayers suitable for bidirectional transport studies. The assay was conducted at 37° C. using Hanks' balanced salt solution (HBSS) adjusted to pH 7.4 on both the apical and basolateral sides. For apical-to-basolateral (A-B) permeability, samples were collected at 0 and 60 minutes, whereas for basolateral-to-apical (B-A) permeability, samples were collected at 0 and 40 minutes. The concentration of each compound in the donor and receiver chambers was determined by HPLC-MS/MS, and all results were expressed in terms of peak area.
The apparent permeability coefficient (Papp) for each compound was calculated using the formula:
[formula] where VR was the volume of the receiver chamber, CR,end was the concentration of the compound in the receiver chamber at the final time point, At was the incubation time, and A was the surface area of the cell monolayer. The midpoint donor concentration (CD,mid) was calculated as the average of the donor concentrations at time 0 and the end time point, while CR,mid was calculated as one-half of CaR,end.
Compound recovery was also evaluated using the following formula:
[formula] where VD and VR were the volumes of the donor and receiver chambers, respectively, CD,end and CR,end were the compound concentrations at the final time point in their respective compartments, and CD0 was the initial concentration in the donor chamber. Monolayer integrity was assessed following the permeability assay using fluorescein as a paracellular marker compound. Fluorescein was added to the apical chamber and sampled in the basolateral chamber after incubation. […] Only data from wells that met this integrity threshold were included in the final analysis.

T2 sequence (P22303 32-614): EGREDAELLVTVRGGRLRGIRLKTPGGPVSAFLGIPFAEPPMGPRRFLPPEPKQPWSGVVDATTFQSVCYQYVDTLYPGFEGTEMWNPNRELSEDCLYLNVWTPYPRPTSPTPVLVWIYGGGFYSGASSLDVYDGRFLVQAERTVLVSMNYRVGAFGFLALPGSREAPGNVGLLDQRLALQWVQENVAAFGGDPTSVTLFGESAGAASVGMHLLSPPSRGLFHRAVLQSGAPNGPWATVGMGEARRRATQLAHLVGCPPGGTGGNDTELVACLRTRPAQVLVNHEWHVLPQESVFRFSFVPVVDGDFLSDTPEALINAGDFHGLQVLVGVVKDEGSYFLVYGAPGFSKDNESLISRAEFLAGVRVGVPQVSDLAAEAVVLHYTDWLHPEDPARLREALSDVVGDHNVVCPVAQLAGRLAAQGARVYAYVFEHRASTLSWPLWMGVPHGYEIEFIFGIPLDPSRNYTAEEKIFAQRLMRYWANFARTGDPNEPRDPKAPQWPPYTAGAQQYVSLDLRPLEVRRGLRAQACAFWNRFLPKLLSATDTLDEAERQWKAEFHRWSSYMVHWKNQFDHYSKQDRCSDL

Turning to `COCc1cc(CCN)c(O)cc1CC(C)C` [2CiBu-2OH-5MM, 2-(2-aminoethyl)-5-isobutyl-4-(methoxymethyl)phenol], the “Mean Percent Inhibition of Control Specific Binding” value (“Mean Percent Inhibition” below) is 12.7% in the data set with KV channel, −24.3% with NMDA, 79.4% at alpha2A (h) and 4.4% at Acetylcholinesterase (h).
As for `COCCc1cc(CCN)c(OC)cc1Br` [Compound 2CB-5ME, reference compound], the “Mean Percent Inhibition” value in the data set with KV channel is given as −4.3%. For the same compound, the “Mean Percent Inhibition” value in the data set on NMDA came to 3.5%. In the data set with MDR1, the recovery at 60 min was determined as 75%; the recovery at 40 min was 79%; the Papp A→B – broadly, how fast a substance crosses the layer from the apical side – at 60 min was 32.9 ×10⁻⁶ cm/s; the Papp B→A (commonly how fast a substance crosses the layer from the basolateral side) at 40 min was 13.8 ×10⁻⁶ cm/s. Also, the “Mean Percent Inhibition” value on alpha2A (h) was found to be 73.0%. For the same compound, the “Mean Percent Inhibition” value on Acetylcholinesterase (h) is reported as −3.2%.
As for `COCc1cc(CCN)c(OC)cc1CC(C)C` [Compound 2CiBu-5MM, 2-[4-isobutyl-2-methoxy-5-(methoxymethyl)phenyl]ethanamine], the “Mean Percent Inhibition” value in the data set on KV channel is −4.2%. For the same compound, in the data set with NMDA, the “Mean Percent Inhibition” value is 12.0%. Further, in the data set with MDR1, the recovery at 60 min was determined as 76%, the recovery at 40 min amounted to 79%, the Papp A→B at 60 min was 24.8 ×10⁻⁶ cm/s and the Papp B→A at 40 min was determined as 13.3 ×10⁻⁶ cm/s. For the same compound, at alpha2A (h), the “Mean Percent Inhibition” value is listed as 88.5%. Also, the “Mean Percent Inhibition” value on Acetylcholinesterase (h) came to 8.0%.
Consider `COCc1cc(CCN)c(OC)cc1Br` [Compound 2CB-5MM, 2-(4-bromo-2-methoxy-5-(methoxymethyl)phenyl)ethan-1-amine], for which, in the data set with KV channel, the “Mean Percent Inhibition” value is 0.7%. The “Mean Percent Inhibition” value with NMDA is listed as 4.7%. In the data set on MDR1, the recovery at 60 min amounted to 78%, the recovery at 40 min worked out at 83%, the Papp A→B at 60 min was 29.9 ×10⁻⁶ cm/s and the Papp B→A at 40 min was 14.5 ×10⁻⁶ cm/s. The “Mean Percent Inhibition” value on alpha2A (h) is 80.2%. For the same compound, the “Mean Percent Inhibition” value on Acetylcholinesterase (h) is given as −3.5%.
